{
  "source": "patent US5326879A",
  "about": "“Indole derivatives” (priority 1991, dated 1994)",
  "key": {"H^+ /K^+ ATPase": {"molecular_target": "T1, H^+ /K^+ ATPase (Sus scrofa, UniProt P19156)", "T1 construct": "prepared from the stomach of pig; from tissue; host or cells: stomach of pig", "T1 sequence (P19156 2-1034 limits assumed)": "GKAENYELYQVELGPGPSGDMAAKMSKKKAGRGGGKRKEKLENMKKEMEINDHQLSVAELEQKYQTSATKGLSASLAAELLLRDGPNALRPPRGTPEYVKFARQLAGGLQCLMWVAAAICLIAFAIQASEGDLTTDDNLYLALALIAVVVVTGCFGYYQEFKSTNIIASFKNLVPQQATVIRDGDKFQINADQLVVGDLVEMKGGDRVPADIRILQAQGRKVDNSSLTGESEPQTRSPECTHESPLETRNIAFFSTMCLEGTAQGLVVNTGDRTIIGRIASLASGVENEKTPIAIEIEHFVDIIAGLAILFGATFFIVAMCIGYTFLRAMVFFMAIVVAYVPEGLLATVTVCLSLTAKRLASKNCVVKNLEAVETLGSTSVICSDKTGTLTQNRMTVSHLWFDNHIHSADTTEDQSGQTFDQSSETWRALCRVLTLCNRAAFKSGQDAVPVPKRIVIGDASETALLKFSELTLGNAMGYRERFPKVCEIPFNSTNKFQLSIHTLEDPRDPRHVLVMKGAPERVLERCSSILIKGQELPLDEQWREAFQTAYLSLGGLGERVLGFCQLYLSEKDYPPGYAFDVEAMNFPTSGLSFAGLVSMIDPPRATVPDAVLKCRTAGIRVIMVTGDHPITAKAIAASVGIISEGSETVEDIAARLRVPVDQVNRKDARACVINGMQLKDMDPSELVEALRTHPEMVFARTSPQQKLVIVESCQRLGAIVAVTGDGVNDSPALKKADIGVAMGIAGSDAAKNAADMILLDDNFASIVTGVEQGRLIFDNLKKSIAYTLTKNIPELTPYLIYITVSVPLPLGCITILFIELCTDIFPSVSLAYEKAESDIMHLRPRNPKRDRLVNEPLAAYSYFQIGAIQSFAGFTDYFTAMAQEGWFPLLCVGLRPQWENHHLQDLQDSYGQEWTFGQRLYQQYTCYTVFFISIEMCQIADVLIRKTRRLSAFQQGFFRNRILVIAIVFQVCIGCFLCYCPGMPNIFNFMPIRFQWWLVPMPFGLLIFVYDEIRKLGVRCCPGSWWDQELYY", "T1 sequence (P18434 whole entry partner)": "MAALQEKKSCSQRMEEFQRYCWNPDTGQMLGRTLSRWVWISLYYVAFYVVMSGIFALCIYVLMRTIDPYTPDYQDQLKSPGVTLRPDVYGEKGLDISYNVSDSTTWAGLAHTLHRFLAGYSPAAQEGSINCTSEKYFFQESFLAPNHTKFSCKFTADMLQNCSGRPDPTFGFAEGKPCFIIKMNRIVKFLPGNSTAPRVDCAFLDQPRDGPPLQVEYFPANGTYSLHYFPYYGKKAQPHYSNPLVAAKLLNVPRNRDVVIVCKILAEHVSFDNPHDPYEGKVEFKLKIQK", "assay": "H^+ /K^+ ATPase Inhibitory Activity Assay", "assay_type": "biochemical, pig", "conditions": "for inhibition at 20 µg/mL: 20 μg/ml; for inhibition at 10 µg/mL / inhibition at 5 µg/mL: read-out: H^+ /K^+ ATPase % Inhibition", "description": "The inhibitory activity was determined in the following manner using H^+ /K^+ ATPase prepared from the stomach of pig.\nH^+ /K^+ ATPase dilute solution (100 μl, 50 μg as protein) was added to PIPES-tris (pH 6.2) buffer solution (440 μl) containing 4 mM magnesium chloride and 20 mM potassium chloride. Further, 0.1% ethanol solution of nigericin (5 μl) was added. To the solution was added dimethyl sulfoxide (5 μl) and the mixture was incubated at 37° C. for 30 minutes. Then 10 mM PIPES-tris buffer solution (450 μl) containing 4 mM ATP disodium was added to initiate the reaction. 30 minutes later, 50% trichloroacetic acid (1 ml) was added to cease the reaction. […] On the other hand, a similar determination was carried out in the absence of potassium chloride, at which the reading of the absorbance is taken as C2. […] In that case, the readings of the absorbance in the presence and absence of potassium chloride are taken as T1 and T2, respectively.\n% Inhibition (I) of the inhibiting substance (test compound) is calculated by the following equation."}, "[1]": {"conditions": "background statement; cited from earlier work"}},
  "note": "Read-outs that look alike come from different tables or passages of the source.",
  "data": [
    {"compound": "c1ccc2c(CCN3CCCCC3)c(CCCCCCc3[nH]c4ccccc4c3CCN3CCCCC3)[nH]c2c1", "note": "[Example 1, 3,3'-Di(2-piperidinoethyl)-2,2'-hexamethylenediindole]", "values": [
      {"measurement": "inhibition at 20 µg/mL", "setting": "H^+ /K^+ ATPase", "result": 5, "unit": "%"}
    ]},
    {"compound": "c1ccc2[nH]c(CCCCCCc3[nH]c4ccccc4c3CCN3CCCCC3)cc2c1", "note": "[Example 2, 3-(2-Piperidinoethyl)-2,2'-hexamethylenediindole]", "values": [
      {"measurement": "inhibition at 10 µg/mL", "setting": "H^+ /K^+ ATPase; 10 μg/ml", "result": 84, "unit": "%"}
    ]},
    {"compound": "c1ccc(CCNCCc2c(CCCCc3cc4ccccc4[nH]3)[nH]c3ccccc23)cc1", "note": "[Example 3, 3-(2-Phenethylaminoethyl)-2,2'-tetramethylenediindole]", "values": [
      {"measurement": "inhibition at 10 µg/mL", "setting": "H^+ /K^+ ATPase; 10 μg/ml", "result": 97, "unit": "%"}
    ]},
    {"compound": "c1ccc2[nH]c(CCCCCCCCc3[nH]c4ccccc4c3CCN3CCCCC3)cc2c1", "note": "[Example 4, 3-(2-Piperidinoethyl)-2,2'-octamethylenediindole]", "values": [
      {"measurement": "inhibition at 10 µg/mL", "setting": "H^+ /K^+ ATPase; 10 μg/ml", "result": 91, "unit": "%"}
    ]},
    {"compound": "c1ccc2[nH]c(CCCCc3[nH]c4ccccc4c3CCN3CCOCC3)cc2c1", "note": "[Example 5, 3-(2-Morpholinoethyl)-2,2'-tetramethylenediindole]", "values": [
      {"measurement": "inhibition at 20 µg/mL", "setting": "H^+ /K^+ ATPase", "result": 68, "unit": "%"}
    ]},
    {"compound": "c1ccc(CNCCc2c(CCCCc3[nH]c4ccccc4c3CCNCc3ccccc3)[nH]c3ccccc23)cc1", "note": "[Example 7, 3,3'-Di(2-benzylaminoethyl)-2,2'-tetramethylenediindole]", "values": [
      {"measurement": "inhibition at 20 µg/mL", "setting": "H^+ /K^+ ATPase", "result": 76, "unit": "%"}
    ]},
    {"compound": "c1ccc(CNCCc2c(CCCCc3cc4ccccc4[nH]3)[nH]c3ccccc23)cc1", "note": "[Example 8, 3-(2-Benzylaminoethyl)-2,2'-tetramethylenediindole]", "values": [
      {"measurement": "inhibition at 20 µg/mL", "setting": "H^+ /K^+ ATPase", "result": 100, "unit": "%"}
    ]},
    {"compound": "c1ccc(CCNCCc2c(CCCCc3[nH]c4ccccc4c3CCNCCc3ccccc3)[nH]c3ccccc23)cc1", "note": "[Example 13, 3,3'-Di(2-phenethylaminoethyl)-2,2'-tetramethylenediindole]", "values": [
      {"measurement": "inhibition at 5 µg/mL", "setting": "H^+ /K^+ ATPase; 5 μg/ml", "result": 74, "unit": "%"}
    ]},
    {"compound": "c1ccc2[nH]c(CCCCc3[nH]c4ccccc4c3CCNCCc3c[nH]c4ccccc34)cc2c1", "note": "[Example 16, 3-(2-(2-(3-Indolyl)ethylamino)ethyl)-2,2'-tetramethylenediindole]", "values": [
      {"measurement": "inhibition at 5 µg/mL", "setting": "H^+ /K^+ ATPase; 5 μg/ml", "result": 71, "unit": "%"}
    ]},
    {"compound": "CN(CCc1c(CCCCc2[nH]c3ccccc3c2CCN(C)Cc2ccccc2)[nH]c2ccccc12)Cc1ccccc1", "note": "[Example 17, 3,3'-Di(2-(N-methylbenzylamino)ethyl)-2,2'-tetramethylenediindole]", "values": [
      {"measurement": "inhibition at 5 µg/mL", "setting": "H^+ /K^+ ATPase", "result": 38, "unit": "%"}
    ]},
    {"compound": "CN(CCc1c(CCCCc2cc3ccccc3[nH]2)[nH]c2ccccc12)Cc1ccccc1", "note": "[Example 18, 3-(2-(N-Methylbenzylamino)ethyl)-2,2'-tetramethylenediindole]", "values": [
      {"measurement": "inhibition at 10 µg/mL", "setting": "H^+ /K^+ ATPase", "result": 100, "unit": "%"}
    ]},
    {"compound": "c1ccc(CCCNCCc2c(CCCCc3[nH]c4ccccc4c3CCNCCCc3ccccc3)[nH]c3ccccc23)cc1", "note": "[Example 19, 3,3'-Di(2-(3-phenylpropylamino)ethyl)-2,2'-tetramethylenediindole]", "values": [
      {"measurement": "inhibition at 10 µg/mL", "setting": "H^+ /K^+ ATPase; 10 μg/ml", "result": 98, "unit": "%"}
    ]},
    {"compound": "COc1ccc2[nH]c([S+]([O-])Cc3ncc(C)c(OC)c3C)nc2c1", "note": "(stereo not shown) [Omeprazole, omeprazole]", "values": [
      {"measurement": "occurrence of side effect (omeprazole)", "setting": "[1]", "result": "occurrence of carcinoid"}
    ]}
  ]
}
